Measurements: US20250230193A1, “CYCLIC COMPOUND HAVING SELECTIVE KRAS INHIBITORY EFFECT ON HRAS AND NRAS” (CHUGAI SEIYAKU KABUSHIKI KAISHA, priority 2022, published 2025)

Assays:
[1] = molecular target: GDP-bound HRAS wild-type protein (Homo sapiens, UniProt P01112); experiment: Binding to HRAS by surface plasmon resonance (SPR), Single Cycle Kinetics; conditions: for HRAS/KRAS (ratio of KD value with respect to HRAS to KD value with respect to KRAS) / HRAS/KRAS (ratio of KD value for HRAS to KD value for KRAS): GDP-bound HRAS wild-type vs GDP-bound KRAS wild-type
[2] = molecular target: GDP-bound NRAS wild-type protein (Homo sapiens, UniProt P01111); experiment: Binding to NRAS by surface plasmon resonance (SPR), Single Cycle Kinetics; conditions: for NRAS/KRAS (ratio of KD value with respect to NRAS to KD value with respect to KRAS) / NRAS/KRAS (ratio of KD value for NRAS to KD value for KRAS): GDP-bound NRAS wild-type vs GDP-bound KRAS wild-type
Chain of GDP-bound NRAS wild-type protein (P01111 whole entry): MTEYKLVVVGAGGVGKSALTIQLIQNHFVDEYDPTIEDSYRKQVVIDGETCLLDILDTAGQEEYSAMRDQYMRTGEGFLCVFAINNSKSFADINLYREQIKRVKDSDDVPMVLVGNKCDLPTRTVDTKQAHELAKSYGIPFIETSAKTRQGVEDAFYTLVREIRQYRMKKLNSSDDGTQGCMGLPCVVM

Chain of GDP-bound HRAS wild-type protein (P01112 whole entry): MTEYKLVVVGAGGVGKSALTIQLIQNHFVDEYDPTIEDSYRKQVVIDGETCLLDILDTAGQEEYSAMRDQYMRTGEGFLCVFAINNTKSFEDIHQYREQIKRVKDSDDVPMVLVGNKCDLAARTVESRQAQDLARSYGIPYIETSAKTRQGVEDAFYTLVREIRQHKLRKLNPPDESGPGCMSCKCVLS

CCC[C@H]1C(=O)N[C@@H]([C@@H](C)CC)C(=O)N(C2CC2)CC(=O)N(C)[C@H]2C/C=C\CCN(C2=O)[C@@H](Cc2ccc(C)cc2)C(=O)N(C)CC(=O)N[C@@H](CCc2cc(F)c(C(F)(F)F)c(F)c2)C(=O)N2C[C@H](OCC)C[C@H]2C(=O)NC2(CC(C)(C)C2)C(=O)N(C)[C@@H](C(CC)CC)C(=O)N(C)[C@H](C(=O)N(C)C)CC(=O)N1C [PP2560]
HRAS/KRAS (ratio of KD value with respect to GDP-bound HRAS wild-type protein to KD value with respect to KRAS) ([1]; class symbols): A (a compound having 10 or more and less than 20 is denoted as A)
NRAS/KRAS (ratio of KD value with respect to GDP-bound NRAS wild-type protein to KD value with respect to KRAS) ([2]; class symbols): AA (a compound having 20 or more is denoted as AA)

CCO[C@@H]1C[C@H]2C(=O)NC3(CCC3)C(=O)N(C)[C@@H](C3CCCC3)C(=O)N(C)[C@H](C(=O)N(C)C)CC(=O)N(C)[C@@H](CC(C)C)C(=O)N[C@@H]([C@@H](C)CC)C(=O)N3CC[C@H]3C(=O)N(C)[C@H]3C[C@@H](C)CCN(C3=O)[C@@H](Cc3ccc(C(F)(F)F)cc3)C(=O)N(C)CC(=O)N[C@@H](CCc3cc(F)c(C(F)(F)F)c(F)c3)C(=O)N2C1 [PP1019]
HRAS/KRAS (ratio of KD value with respect to HRAS to KD value with respect to KRAS) ([1]; KD ratio, SPR): B (a compound having 3 or more and less than 10 is denoted as B)
NRAS/KRAS (ratio of KD value with respect to NRAS to KD value with respect to KRAS) ([2]; KD ratio, SPR): C (A compound having a KD ratio of 0.1 or more and less than 3 is denoted as C)

CCCC[C@H]1C(=O)N[C@@H]([C@@H](C)CC)C(=O)N(C)CC(=O)N(C)[C@H]2C/C=C\CCN(C2=O)[C@@H](Cc2ccc(C(F)(F)F)cc2)C(=O)N(C)CC(=O)N[C@@H](CCc2cc(F)c(C(F)(F)F)c(F)c2)C(=O)N2C[C@H](OCC)C[C@H]2C(=O)NC2(CCC2)C(=O)N(C)[C@@H](C2CCCC2)C(=O)N(C)[C@H](C(=O)N(C)CCC)CC(=O)N1C [PP1704]
HRAS/KRAS (ratio of KD value for HRAS to KD value for KRAS) ([1]; KD ratio, SPR): A (a compound having 10 or more and less than 20 is denoted as A)
NRAS/KRAS (ratio of KD value for NRAS to KD value for KRAS) ([2]; KD ratio, SPR): A (a compound having 10 or more and less than 20 is denoted as A)

CCOC[C@H]1C(=O)N[C@@H]([C@@H](C)CC)C(=O)N(C)CC(=O)N(C)[C@H]2C/C=C\CCN(C2=O)[C@@H](Cc2ccc(C(F)(F)F)cc2)C(=O)N(C)CC(=O)N[C@@H](CCc2ccc(C(F)(F)F)c(OC)c2)C(=O)N2C[C@@H](C)C[C@H]2C(=O)N(C)C2(CCC2)C(=O)N(C)[C@@H](C2CCCC2)C(=O)N(C)[C@H](C(=O)N(C)C)CC(=O)N1C [PP2359]
HRAS/KRAS (ratio of KD value with respect to HRAS to KD value with respect to KRAS) ([1]; SPR): B (a compound having 3 or more and less than 10 is denoted as B)
NRAS/KRAS (ratio of KD value with respect to NRAS to KD value with respect to KRAS) ([2]; SPR): A (a compound having 10 or more and less than 20 is denoted as A)

CCO[C@@H]1C[C@H]2C(=O)NC3(CCC3)C(=O)N(C)[C@@H](C3CCCC3)C(=O)N(C)[C@H](C(=O)N3CCOCC3)CC(=O)N(C)[C@@H](Cc3cccs3)C(=O)N[C@@H]([C@@H](C)CC)C(=O)N(C)CC(=O)N(C)[C@H]3CCCCCN(C3=O)[C@@H](Cc3ccc(F)cc3)C(=O)N(C)CC(=O)N[C@@H](CCc3cc(F)c(C(F)(F)F)c(F)c3)C(=O)N2C1 [PP1183]
HRAS/KRAS (ratio of KD value with respect to HRAS to KD value with respect to KRAS) ([1]; KD ratio, SPR): B (a compound having 3 or more and less than 10 is denoted as B)
NRAS/KRAS (ratio of KD value with respect to NRAS to KD value with respect to KRAS) ([2]; KD ratio, SPR): B (a compound having 3 or more and less than 10 is denoted as B)

CCOC[C@H]1C(=O)N[C@@H]([C@@H](C)CC)C(=O)N(C)CC(=O)N(C)[C@H]2C/C=C\CCN(C2=O)[C@@H](Cc2ccc(C(F)(F)F)cc2)C(=O)N(C)CC(=O)N[C@@H](CCc2ccc(C(F)(F)F)c(OC)c2)C(=O)N2C[C@H](OCC)C[C@H]2C(=O)NC2(CC(C)(C)C2)C(=O)N(C)[C@@H](C2CCCC2)C(=O)N(C)[C@H](C(=O)N(C)CC)CC(=O)N1C [PP2014]
HRAS/KRAS (ratio of KD value for HRAS to KD value for KRAS) ([1]; KD ratio, SPR): A (a compound having 10 or more and less than 20 is denoted as A)
NRAS/KRAS (ratio of KD value for NRAS to KD value for KRAS) ([2]; KD ratio, SPR): A (a compound having 10 or more and less than 20 is denoted as A)

CCO[C@@H]1C[C@H]2C(=O)NC3(CCCC3)C(=O)N(C)[C@@H](C3CCCC3)C(=O)N(C)[C@H](C(=O)N(C)C)CC(=O)N(C)[C@@H](CC(C)C)C(=O)N[C@@H]([C@@H](C)CC)C(=O)N(C)CC(=O)N(C)[C@H]3C/C=C\CCN(C3=O)[C@@H](Cc3ccc(C(F)(F)F)cc3)C(=O)N(C)CC(=O)N[C@@H](CCc3ccc(C(F)(F)F)c(Cl)c3)C(=O)N2C1 [PP2838]
HRAS/KRAS (ratio of KD value with respect to GDP-bound HRAS wild-type protein to KD value with respect to KRAS) ([1]; class symbols): A (a compound having 10 or more and less than 20 is denoted as A)
NRAS/KRAS (ratio of KD value with respect to GDP-bound NRAS wild-type protein to KD value with respect to KRAS) ([2]; class symbols): AA (a compound having 20 or more is denoted as AA)

CCC(CC)[C@H]1C(=O)N(C)[C@H](C(=O)N(C)C)CC(=O)N(C)[C@@H](COC)C(=O)N[C@@H]([C@@H](C)CC)C(=O)N(C)CC(=O)N(C)[C@H]2C/C=C\CCN(C2=O)[C@@H](Cc2ccc(C(F)(F)F)cc2)C(=O)N(C)CC(=O)N[C@@H](CCc2ccc(Cl)c(Cl)c2)C(=O)N2C[C@H](OC3CCCC3)C[C@H]2C(=O)NC2(CC(C)(C)C2)C(=O)N1C [PP2648]
HRAS/KRAS (ratio of KD value with respect to GDP-bound HRAS wild-type protein to KD value with respect to KRAS) ([1]; class symbols): A (a compound having 10 or more and less than 20 is denoted as A)
NRAS/KRAS (ratio of KD value with respect to GDP-bound NRAS wild-type protein to KD value with respect to KRAS) ([2]; class symbols): A (a compound having 10 or more and less than 20 is denoted as A)

CCOC[C@H]1C(=O)N[C@@H]([C@@H](C)CC)C(=O)N(C2CC2)CC(=O)N(C)[C@H]2C/C=C\CCN(C2=O)[C@@H](Cc2ccc(C)cc2)C(=O)N(C)CC(=O)N[C@@H](CCc2cc(F)c(C(F)(F)F)c(F)c2)C(=O)N2C[C@H](OCC)C[C@H]2C(=O)NC2(CC(C)(C)C2)C(=O)N(C)[C@@H](CC(C)(C)C)C(=O)N(C)[C@H](C(=O)N(C)C)CC(=O)N1C [PP2720]
HRAS/KRAS (ratio of KD value with respect to GDP-bound HRAS wild-type protein to KD value with respect to KRAS) ([1]; class symbols): A (a compound having 10 or more and less than 20 is denoted as A)
NRAS/KRAS (ratio of KD value with respect to GDP-bound NRAS wild-type protein to KD value with respect to KRAS) ([2]; class symbols): A (a compound having 10 or more and less than 20 is denoted as A)

CCC[C@H]1C(=O)N[C@@H](CC(C)C)C(=O)N2C[C@@H](OC)C[C@H]2C(=O)N(C)[C@H]2C/C=C\CCN(C2=O)[C@@H](Cc2ccc(C)cc2)C(=O)N(C)CC(=O)N[C@@H](CCc2ccc(C(F)(F)F)c(Cl)c2)C(=O)N2C[C@H](OCC)C[C@H]2C(=O)NC2(CCC2)C(=O)N(C)[C@@H](C2CCCC2)C(=O)N(C)[C@H](C(=O)N(C)C)CC(=O)N1C [PP2549]
HRAS/KRAS (ratio of KD value with respect to GDP-bound HRAS wild-type protein to KD value with respect to KRAS) ([1]; class symbols): B (a compound having 3 or more and less than 10 is denoted as B)
NRAS/KRAS (ratio of KD value with respect to GDP-bound NRAS wild-type protein to KD value with respect to KRAS) ([2]; class symbols): A (a compound having 10 or more and less than 20 is denoted as A)

CCO[C@@H]1C[C@H]2C(=O)NC3(CCC3)C(=O)N(C)[C@@H](C3CCCC3)C(=O)N(C)[C@H](C(=O)N3CCOCC3)CC(=O)N(C)[C@@H](CC(C)C)C(=O)N[C@@H]([C@@H](C)CC)C(=O)N(C)CC(=O)N(C)[C@H]3CC(C)=CCN(C3=O)[C@@H](Cc3ccc(C(F)(F)F)cc3)C(=O)N(C)CC(=O)N[C@@H](CCc3cc(F)c(C(F)(F)F)c(F)c3)C(=O)N2C1 [PP1039]
HRAS/KRAS (ratio of KD value with respect to HRAS to KD value with respect to KRAS) ([1]; KD ratio, SPR): C (A compound having a KD ratio of 0.1 or more and less than 3 is denoted as C)
NRAS/KRAS (ratio of KD value with respect to NRAS to KD value with respect to KRAS) ([2]; KD ratio, SPR): C (A compound having a KD ratio of 0.1 or more and less than 3 is denoted as C)

CC[C@H](C)[C@@H]1NC(=O)[C@H](CC(C)C)N(C)C(=O)C[C@@H](C(=O)N2CCOCC2)N(CC)C(=O)[C@H](C2CCCC2)N(C)C(=O)C2(CCCC2)NC(=O)[C@@H]2CCCN2C(=O)[C@H](CCc2cc(F)c(C(F)(F)F)c(F)c2)NC(=O)CN(C)C(=O)[C@H](Cc2ccc(C(F)(F)F)cc2)N2CCCCC[C@@H](C2=O)N(C)C(=O)CN(C)C1=O [PP0477]
HRAS/KRAS (ratio of KD value with respect to GDP-bound HRAS wild-type protein to KD value with respect to KRAS) ([1]; SPR): A (a compound having 10 or more and less than 20 is denoted as A)
NRAS/KRAS (ratio of KD value with respect to GDP-bound NRAS wild-type protein to KD value with respect to KRAS) ([2]; SPR): A (a compound having 10 or more and less than 20 is denoted as A)

CC[C@H](C)[C@@H]1NC(=O)[C@H](CC)N(C)C(=O)C[C@@H](C(=O)N(C)C)N(C)C(=O)[C@H](C2CCCC2)N(C)C(=O)C2(CCCC2)N(C)C(=O)[C@@H]2CCCN2C(=O)[C@H](CCc2cc(F)c(C(F)(F)F)c(F)c2)NC(=O)CN(C)C(=O)[C@H](Cc2ccc(C)cc2)N2CC/C=C\C[C@@H](C2=O)N(C)C(=O)[C@@H]2CCCN2C1=O [PP1811]
HRAS/KRAS (ratio of KD value for HRAS to KD value for KRAS) ([1]; KD ratio, SPR): B (a compound having 3 or more and less than 10 is denoted as B)
NRAS/KRAS (ratio of KD value for NRAS to KD value for KRAS) ([2]; KD ratio, SPR): A (a compound having 10 or more and less than 20 is denoted as A)

CCO[C@@H]1C[C@H]2C(=O)NC3(CCC3)C(=O)N(C)[C@@H](C3CCCC3)C(=O)N(C)[C@H](C(=O)N(C)CCOC)CC(=O)N(C)[C@@H](CC(C)C)C(=O)N[C@@H]([C@@H](C)CC)C(=O)N(C)CC(=O)N(C)[C@H]3C/C=C\CCN(C3=O)[C@@H](Cc3ccc(C(F)(F)F)cc3)C(=O)N(C)CC(=O)N[C@@H](CCc3cc(F)c(C(F)(F)F)c(F)c3)C(=O)N2C1 [PP1317]
HRAS/KRAS (ratio of KD value for GDP-bound HRAS wild-type protein to KD value for KRAS) ([1]; SPR, KD ratio class): B (a compound having 3 or more and less than 10 is denoted as B)
NRAS/KRAS (ratio of KD value for GDP-bound NRAS wild-type protein to KD value for KRAS) ([2]; SPR, KD ratio class): A (a compound having 10 or more and less than 20 is denoted as A)

CC[C@H](C)[C@@H]1NC(=O)[C@H](CC(C)C)N(C)C(=O)C[C@@H](C(=O)N2CCOCC2)N(C)C(=O)[C@H](C2CCCC2)N(C)C(=O)C2(CCC2)NC(=O)[C@@H]2[C@H]3C[C@H]3CN2C(=O)[C@H](CCc2cc(F)c(C(F)(F)F)c(F)c2)NC(=O)CN(C)C(=O)[C@H](Cc2ccc(C(F)(F)F)cc2)N2CCCCC[C@@H](C2=O)N(C)C(=O)CN(C)C1=O [PP0819]
HRAS/KRAS (ratio of KD value with respect to HRAS to KD value with respect to KRAS) ([1]; KD ratio, SPR): B (a compound having 3 or more and less than 10 is denoted as B)
NRAS/KRAS (ratio of KD value with respect to NRAS to KD value with respect to KRAS) ([2]; KD ratio, SPR): A (a compound having 10 or more and less than 20 is denoted as A)
